Legend:
S. cerevisiae = test: IAA-associated growth inhibition phenotype in S. cerevisiae ald mutants; assay type: cell-based, Saccharomyces cerevisiae
Description: (§1) Analytical and phenotypic studies were performed in cognate deletion mutants, made in the Σ1278b background. A [^14C]Trp incorporation assay was performed to verify that phenotype observed in the library strain could be recapitulated in the newly constructed E1278b strain. Typically three independent transformants were isolated, confirmed by PCR and used for further studies. Standard culture conditions were used (Sherman et al., Laboratory Course Manual for Methods in Yeast Genetics, Cold Spring Harbor Laboratories Press, Cold Spring Harbor, N.Y., 1986) and analysis of IAA-associated phenotypes were performed as described earlier (Prusty et al., Proc. Natl. Acad. Sci. USA 101:4153-4157, 2004).
The ability of a fungus to perceive a small molecule signal that causes it to differentiate into an invasive form has important implications for host-pathogen interactions. To test the hypothesis that mutants with aberrant IAA accumulation also affect dimorphism, we examined diploid filamentation and haploid invasive growth in all ald single mutants and selected combinations of double mutants. […] We also tested a previously reported growth inhibition phenotype associated with exposure to IAA. […] However, these phenotypes are consistent with ald2Δald3Δ mutants producing more IAA than isogenic wild-type strains.

C. albicans [1] = test: Growth on media containing IAA (IAA sensitivity) of C. albicans CAP1 deletion mutants; assay type: cell-based, Candida albicans
Description: as §1
To test if other aspects of IAA regulation in S. cerevisiae were also conserved in C. albicans, we tested Cap1, the C. albicans homolog of Yap, for its sensitivity to IAA.

C. albicans [2] = test: IAA-induced filamentation in C. albicans; assay type: cell-based, Candida albicans
Description: as §1
IAA induces filamentation in C. albicans: The effects of the secondary metabolites identified in fungi appear to be largely species specific (Chen and Fink, Genes Dev. 20:1150-1161, 2006). […] To test whether the IAA effects could cross species barriers, we exposed wild-type C. albicans, a human pathogen, as well as attenuated mutants in the mitogen-activated protein (MAP) kinase and the cAMP-dependent protein kinase pathways to IAA. […] The cph1Δ/Δefg1Δ/Δ double mutant, which is nonfilamentous under standard laboratory conditions and avirulent in mice, filaments in the oral cavity of immunosuppressed piglets and when embedded in agar (Riggle et al., Infect. Immun. 67:3649-3652, 1999).

Compound: O=C(O)Cc1c[nH]c2ccccc12 [IAA, indole-3-acetic acid]
- sensitivity to IAA (growth inhibition) (S. cerevisiae; deletion of both ald2 and ald3 vs wild-type cells): increase in sensitivity to IAA
- sensitivity to IAA (growth inhibition) (S. cerevisiae; single deletion of an ALD gene vs wild-type cells): did not affect IAA sensitivity
- growth on media containing IAA (C. albicans [1]; heterozygous and homozygous CAP1 deletion mutants vs isogenic wild type): grew less well
- sensitivity to IAA (C. albicans [1]; heterozygous cap1Δ/+ vs wild-type CAP1+/+ or homozygous cap1Δ/Δ): intermediate sensitivity
- filamentation (C. albicans [2]; single mutants efg1Δ/Δ or cph1Δ/Δ, exposed to IAA): showed a robust filamentation
- filamentation (C. albicans [2]; wild-type strains, treated with IAA vs untreated cells): filamented more

— US20130130305A1, “IN[…] THAT INHIBIT IAA OR A YAP FAMILY” (priority 2010, published 2013)
